Entries after “also recorded” stand apart in the source; their conditions may differ. Like-named read-outs stand apart in the source and are kept apart here.

Series [1] concerns SV40 transformed BALB-3T3 cells. Conditions: cited from earlier work.
The subject of a further series is mammalian retroviruses. Conditions: millimolar concentrations, in vitro; cited from earlier work.
A further series deals with Mammalian rotaviruses. To be noted: millimolar concentrations, in vitro; cited from earlier work.
In series [2] the test system is tomato spotted wilt virus. Conditions: cited from earlier work.
Series [3] concerns Common ornamental plant cells infected by viruses. The series is described as follows: Treatment of virus-infected ornamental plants with antiviral agents. To be noted: viral strains not determined.
For another series, the system named is NRK cells. Conditions: cells treated with picolinic acid; cited from earlier work.
Series [4] relates to Rice suspension cells and leaves. Conditions: cited from earlier work; for hypersensitive response (HR): rice.
Series [5] addresses T1, Zn(HIV1-F1) zinc finger peptide (N-terminal CCHC region of the HIV-LA1 gag polyprotein) (Human immunodeficiency virus type 1 group M subtype B, UniProt P03348).
T1 construct: corresponds to the N-terminal CCHC region of the HIV-LA1 gag polyprotein (amino acids 390-470); made in house; host or cells: chemical synthesis (synthetic peptide)
As to the kind of experiment: NMR studies of ligand binding by a zinc finger peptide from HIV-1. To be noted: for binding to Zn(HIV1-F1): NMR spectroscopy, titration and NOESY. An excerpt: The interaction between two of the ligands of this invention (Fusaric acid and picolinic acid) and their binding by a Zinc Finger Peptide from HIV-1 containing a zinc finger motif were studied by NMR spectroscopy (FIGS. 16, and 16.1-4).
The peptide sequence […], corresponds to the N-terminal CCHC region of the HIV-LA1 gag polyprotein (amino acids 390-470). The peptide containing the complex of zinc atom bound to the zinc finger domain of the peptide was named: Zn (HIV1-F1).
A synthetic oligonucleotide with sequence corresponding to a region of HIV-1 psi-packaging signal, d (ACGCC) was complexed with the peptide (South and Summers, 1993).Fusaric Acid [[…]] was denoted FSR-488 and picolinic acid [2-pyridine carboxylic acid] was denoted PCL-016. Interactions of FSR-488 and PCL-016 with the zinc finger peptide containing Zn [Zn(HIV1-F1)] were studied by NMR spectroscopy. […] Titration experiments with each of the two molecules caused shifts in the ^1H resonances of Zn(HIV1-F1) that are similar to those observed when the peptide binds analogs of its natural substrate. Two dimensional NOE correlation spectroscopy (NOESY) of the solution containing Zn(HIV1-F1) and FSR-488 gave cross peaks at frequencies that are consistent with contacts between FSR-488 and hydrogen nuclei in the hydrophobic cleft of the peptide.
A sample containing peptide (1.63 mM) and Zn^2+ (2 mM) was titrated with a solution of FSR-488. The experiment was monitored by one dimensional ^1H NMR spectroscopy. Under conditions in which the free zinc in the buffer was minimized, titrations with FSR-488 were conducted. Addition of FSR-488 yielded spectral shifts in the spectrum of the peptide (FIGS. 16, and 16.1-4). […] This experimental finding and conclusions led the inventors to run a second 2D NOESY experiment, this time at the higher concentration of FSR-488.
The NOESY spectrum at the high concentration of [FSR-488]. was considerable different than that measured at low concentrations of [FSR-488]. […] Interpretations for these assignments are presented in detailed below.

Series [6] concerns iron incorporation into cells. Conditions: cited from earlier work.
The subject of series [7] is virally-transformed cells. Conditions: further incubation / longer exposure, all transformed cells; cited from earlier work.
Series [8] deals with normal cells (NRK, BALB 3T3, WI-348). To be noted: cited from earlier work.
In a further series the target is T2, recombinant MPS-1 (Homo sapiens, UniProt P42677).
T2 construct: made in house
As to the kind of experiment: Gel shift assay and radioactive Zn65 release from recombinant MPS-1. Type of series: biochemical. Conditions: for zinc dependent binding of recombinant MPS-1 to DNA: gel shift assays. An excerpt: MPS-1 is a ubiquitous tumor marker and cell growth stimulator and is described in detail in the inventors' U.S. Pat. No. 5,243,041. MPS-1 has one zinc finger domain of the type CCCC. […] This is detected by a change in the electrophoretic mobility of MPS-1 under non-denaturing conditions. These experiments indicate that picolinic acid and derivatives should remove zinc and denature various types of zinc finger, zinc ring proteins, or other types of ZF motifs whether known or heretofore undiscovered, including animal or plant viral proteins such as nucleocapsid proteins of retrovirus or the nucleocapsid proteins of Geminivirus. Furthermore, the inventors have determined that any chemical compound, whether known or heretofore undiscovered, that will remove the zinc (or other metal) and denature the proteins or that will form a ternary complex (protein-zinc-chelator) can be effective as an antiviral agent, with nontoxic effects, provided that the agent conforms with certain specific structural requirements.
(Mobility shift assays separate free from complexed probe on a gel.)

Series [9] deals with normal cells (NRK, BALB 3T3, WI-348). The series is described as follows: Control of growth by picolinic acid in normal cells. To be noted: normal animal cells.
Excerpt: Cells transformed (made cancerous) by different viruses that contain ZFP respond differently to picolinic acid. […] Numerous transformed cell lines (Fernandez-Pol, Proc. Natl. Acad. Sci. USA, 74:2889-2893, 1977) were exposed to PA and the points of arrest varied. […] Two important facts emerged from studies with transformed cell lines.
Series [10] relates to virus-infected host cells (HSV-1, HSV-2, HIV-1, Hepatitis C). As to the kind of experiment: Fate of virus-infected host cells after treatment. Type of series: cell-based. To be noted: for fate of virus and host cells: HIV-1, Hepatitis C and numerous other viruses. An excerpt:
Because DnaJ proteins are zinc finger proteins, these proteins can be neutralized and render non-functional by using picolinic acid and derivatives thereof. DnaJ is essential for protein-related cellular functions in both non-infected normal plant and animal cells. […] In contrast, in virally infected cells, picolinic acid and derivatives thereof have pronounced toxic effects which may include suppression of DnaJ proteins. Virally infected cells were killed by picolinic acid and derivatives thereof by apoptosis. In plant cells, this process is denoted as PCD.
APOPTOSIS. Apoptosis is a morphological pattern of cell injury and an important mode of cell death (Robbins, Pathological Basis of Disease, 1999, 6th Ed). Apoptosis shares and overlaps common mechanisms with necrosis. […] This form of cell death is designed to eliminate defective, unwanted and damaged cells. For example, the inventors have shown that cells infected by Herpes Simplex Virus 1 (HSV; labialis) and HSV-2 genitalis are destroyed together with the host cells that they infected by apoptosis when exposed to pyridine carboxylates (Fernandez-Pol, Anticancer Res. 2002). […] Thus, the inventors believes that when host cells of animals or plants are infected by pathogenic viruses, unless the treatment is extremely quickly, the host cells and the virus will be destroyed. In fact, host cells defective, mutated, and reservoirs for the novo synthesis of viruses are unwanted host cells and must be eliminated in many instances to allow the survival of the organism.

Series [11] concerns Arabidopsis thaliana. Conditions: cited from earlier work.
In another series the test system is HSV-2. Conditions: in tissue culture and in animals; cited from earlier work.
For a further series, the system named is Orobanche ramose. To be noted: Arabidopsis thaliana pre-treated with FU; cited from earlier work.
Series [12] deals with Arabidopsis thaliana. To be noted: in vivo; cited from earlier work.
The subject of a further series is HSV-1. Conditions: in tissue culture and in animals; cited from earlier work.

Take `NC(=O)c1cccnc1` [Nicotinamide]: the “effect on cell growth or apoptosis” value in series [1] (at 48h) is listed as “no effect”. Besides, in series [1], the morphology result is reported as “flatten”.
On to `O=C(O)CN(CCOCCOCCN(CC(=O)O)CC(=O)O)CC(=O)O` [EGTA], for which the “viral integrity, measured by release of reverse transcriptase” value with mammalian retroviruses is given as “partial disintegration of viral membranes”. Besides, the viral integrity entry in the series on Mammalian rotaviruses is “partial disintegration of the viral membranes”.
`NC(=O)c1ncn([C@@H]2O[C@H](CO)[C@@H](O)[C@H]2O)n1` [Ribavirin]: the use against virus result in [2] (tomato and tobacco plants) is recorded as “successfully used”. Moreover, in [2] (tomato versus tobacco), the “host in which most efficient” value is given as “most efficient in tomato plants”.
Turning to `O=C(O)c1ccccn1` [Picolinic acid, 2-pyridine carboxylic acid], the “outcome of treatment of virus-infected ornamental plants” value in series [3] is reported as “positive results”. Besides, the “potency of prostaglandin E1 in elevating cyclic AMP” value in the series on NRK cells is recorded as “two to five times more potent”. Besides, the cell death entry in series [4] (Rice suspension cells and leaves) is reported as “apoptosis”. Also, the “reactive oxygen species (ROS)” value in series [4] (rice suspension cells, Ca2+-dependent) was “induced reactive oxygen species (ROS)”. In addition, the “hypersensitive response (HR)” value is “elicits hypersensitive-like response” in [4]; “can elicit the hypersensitive response (HR)” in series [4] (listed as Alpha-picolinic acid); “induced HR” with Arabidopsis thaliana [11] (including oxidative burst and cell death). The mitochondrial effect entry in [1] (3 mM picolinic acid) is “released cytochrome c”. Moreover, the “binding to Zn(HIV1-F1)” value in [5] is recorded as “bind Zn(HIV1-F1) at a hydrophobic cleft”. In series [6], the “incorporation of iron into the cells” value was “inhibits incorporation of iron”. For the same compound, the “removal of radioiron from the cells” value in series [6] was “effectively removes radioiron”. In series [7], the “toxicity in transformed cells” value was “cytotoxicity and cell death; also recorded: cell death by apoptosis”. Further, the “phase of cell cycle arrest” value in [8] (Normal rat kidney (NRK) cells) was “arrested in G1”. For the same compound, the “toxicity in normal cells” value in series [8] was “no toxic effects”. The “removal of zinc from CCCC zinc finger of MPS-1” value at recombinant MPS-1 is recorded as “remove radioactive Zn65; also recorded: remove zinc”. The “zinc dependent binding of recombinant MPS-1 to DNA” value on recombinant MPS-1 is “inhibit”. The “suppression of DnaJ-like proteins” value in series [9] is reported as “did not lead to the suppression”. The “fate of virus and host cells” value in [10] is “Death by apoptosis”. Moreover, the “fate of virally infected cells” value in [10] (virally infected cells) is reported as “killed”. Further, the “marker defense genes PR-1, PR-2 and PDF1.2” value in the series with Arabidopsis thaliana [11] (dose-dependent and time dependent) is “all induced”.
For `O=C(O)CN(CCN(CC(=O)O)CC(=O)O)CC(=O)O` [EDTA], the “viral integrity, measured by release of reverse transcriptase” value with mammalian retroviruses is “partial disintegration of viral membranes”. Besides, in the series on Mammalian rotaviruses, the viral integrity result is reported as “partial disintegration of the viral membranes”.
Regarding `CCCCc1ccc(C(=O)O)nc1` [Fusaric acid, 5-butyl picolinic acid], the “efficacy against viral infection” value in the series on HSV-2 is “effective”. The “outcome of treatment of virus-infected ornamental plants” value in series [3] was “positive results”. Besides, in the series on Orobanche ramose, the germination of parasite result is recorded as “inhibited”. Moreover, the “binding to Zn(HIV1-F1)” value in series [5] was “bind Zn(HIV1-F1) at a hydrophobic cleft”. In addition, in series [5] (peptide 1.63 mM, Zn2+ 2 mM, free zinc minimized), the “binding in one dimensional 1H NMR titration” value was “competitively binds both Zn^2+ and the Zn^2+/Peptide complex”. In the series with Arabidopsis thaliana [12], the “concentration eliciting plant defense responses without toxic effects” value was 100 nM; the “concentration reducing root growth and inducing membrane hyperpolarization then depolarization” value is over 500 µM. On recombinant MPS-1, the “removal of zinc from CCCC zinc finger of MPS-1” value is “remove radioactive Zn65; also recorded: remove zinc” and the “zinc dependent binding of recombinant MPS-1 to DNA” value is recorded as “inhibit”. Besides, the “efficacy against viral infection” value in the series with HSV-1 was “effective”. In addition, the “fate of virus and host cells” value in series [10] is listed as “Death by apoptosis”.

Source of the values: patent US20090239285A1, “TANDEM REAPEAT DNA CONSTRUCTS PRODUCING PROTEINS THAT ATTACK PLANT PATHOGENIC VIRUSES, FUNGI, AND BACTERIA BY DISRUPTING TRANSCRIPTION FACTORS ESSENTIAL FOR REPLICATION THEREOF IN PLANTS” (priority 2008, published 2009).
